ChEMBL document CHEMBL1142444 (Bioorg Med Chem Lett, 2008)

Key:
[1] = molecular target: T1, Muscarinic acetylcholine receptor M1 (Homo sapiens) (UniProt P11229); assay: Agonist activity at muscarinic M1 receptor relative to carbachol; type: functional
T1 sequence (whole entry): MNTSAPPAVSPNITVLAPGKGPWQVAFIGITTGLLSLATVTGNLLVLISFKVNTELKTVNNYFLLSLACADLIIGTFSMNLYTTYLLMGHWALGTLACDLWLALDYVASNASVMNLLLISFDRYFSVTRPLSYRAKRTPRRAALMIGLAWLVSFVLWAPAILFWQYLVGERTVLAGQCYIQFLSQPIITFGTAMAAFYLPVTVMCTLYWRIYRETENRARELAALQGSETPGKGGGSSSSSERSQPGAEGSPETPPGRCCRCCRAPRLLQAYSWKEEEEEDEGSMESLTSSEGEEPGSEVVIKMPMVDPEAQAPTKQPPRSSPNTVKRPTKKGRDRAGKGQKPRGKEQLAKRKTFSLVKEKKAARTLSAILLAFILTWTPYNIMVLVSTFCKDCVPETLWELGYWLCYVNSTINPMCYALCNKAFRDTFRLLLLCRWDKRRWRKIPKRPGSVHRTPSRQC

D(2) dopamine receptor [2] = molecular target: T2, D(2) dopamine receptor (Homo sapiens, UniProt P14416); assay: Inhibition of dopamine D2 receptor at 10 uM; parameters: scale not given: the % may be the effect or the level left
[3] = molecular target: T3, Muscarinic acetylcholine receptor M2 (Homo sapiens, UniProt P08172); assay: Agonist activity at muscarinic M2 receptor; type: functional
T3 sequence (P08172 whole entry): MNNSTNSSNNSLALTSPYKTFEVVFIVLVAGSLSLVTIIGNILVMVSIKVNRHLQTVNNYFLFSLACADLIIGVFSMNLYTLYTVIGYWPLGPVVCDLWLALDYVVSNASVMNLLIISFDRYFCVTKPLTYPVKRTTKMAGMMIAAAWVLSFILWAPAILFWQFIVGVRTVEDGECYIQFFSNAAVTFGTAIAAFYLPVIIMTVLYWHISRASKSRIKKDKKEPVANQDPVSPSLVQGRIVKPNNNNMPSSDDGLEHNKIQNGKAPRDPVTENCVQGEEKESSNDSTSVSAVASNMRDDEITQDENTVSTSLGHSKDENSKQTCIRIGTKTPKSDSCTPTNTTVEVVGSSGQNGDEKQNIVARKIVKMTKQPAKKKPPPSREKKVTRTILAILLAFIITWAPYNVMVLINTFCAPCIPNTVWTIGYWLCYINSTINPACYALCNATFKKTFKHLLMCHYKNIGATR

[4] = molecular target: Muscarinic acetylcholine receptor M3 (Homo sapiens, UniProt P20309); assay: Agonist activity at muscarinic M3 receptor; type: functional
[5] = molecular target: T4, Muscarinic acetylcholine receptor M4 (Homo sapiens, UniProt P08173); assay: Agonist activity at muscarinic M4 receptor; type: functional
T4 sequence (P08173 whole entry): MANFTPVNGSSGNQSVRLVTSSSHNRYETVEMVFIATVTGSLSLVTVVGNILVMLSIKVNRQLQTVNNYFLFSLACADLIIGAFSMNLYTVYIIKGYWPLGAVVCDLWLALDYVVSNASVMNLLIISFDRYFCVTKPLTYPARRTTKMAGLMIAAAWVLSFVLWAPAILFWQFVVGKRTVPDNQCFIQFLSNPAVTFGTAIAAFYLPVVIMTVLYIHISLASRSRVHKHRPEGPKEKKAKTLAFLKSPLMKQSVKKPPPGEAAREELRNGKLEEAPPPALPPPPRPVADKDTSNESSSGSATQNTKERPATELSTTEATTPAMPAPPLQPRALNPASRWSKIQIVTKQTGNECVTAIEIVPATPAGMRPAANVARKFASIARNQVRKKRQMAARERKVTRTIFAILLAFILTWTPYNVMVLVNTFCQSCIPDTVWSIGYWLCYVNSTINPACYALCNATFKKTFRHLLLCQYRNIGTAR

[6] = molecular target: T5, Muscarinic acetylcholine receptor M5 (Homo sapiens, UniProt P08912); assay: Agonist activity at muscarinic M5 receptor; type: functional
T5 sequence (P08912 whole entry): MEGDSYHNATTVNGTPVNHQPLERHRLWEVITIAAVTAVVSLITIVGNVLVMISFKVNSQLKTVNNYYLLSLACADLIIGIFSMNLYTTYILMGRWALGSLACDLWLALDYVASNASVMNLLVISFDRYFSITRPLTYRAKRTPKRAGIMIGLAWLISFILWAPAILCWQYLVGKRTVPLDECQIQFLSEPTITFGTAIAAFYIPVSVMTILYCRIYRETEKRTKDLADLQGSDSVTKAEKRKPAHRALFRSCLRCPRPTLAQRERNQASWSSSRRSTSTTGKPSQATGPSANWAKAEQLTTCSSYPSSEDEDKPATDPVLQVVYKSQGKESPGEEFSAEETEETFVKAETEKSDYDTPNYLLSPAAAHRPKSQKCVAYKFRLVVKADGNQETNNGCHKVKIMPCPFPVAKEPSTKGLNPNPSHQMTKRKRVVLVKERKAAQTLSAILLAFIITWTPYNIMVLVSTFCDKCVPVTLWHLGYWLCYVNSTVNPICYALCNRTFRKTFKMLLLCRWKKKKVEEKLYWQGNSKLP

[7] = molecular target: T6, Muscarinic acetylcholine receptor M1 (Homo sapiens, UniProt P11229); assay: Agonist activity at muscarinic M1 receptor; type: functional
T6 sequence (P11229 whole entry): T1 sequence (whole entry)

D(2) dopamine receptor [8] = molecular target: T2, D(2) dopamine receptor; assay: Inhibition of dopamine D2 receptor
[9] = molecular target: T7, Muscarinic acetylcholine receptor M2 (Homo sapiens) (UniProt P08172); assay: Agonist activity at muscarinic M2 receptor relative to carbachol; type: functional
T7 sequence (whole entry): T3 sequence (P08172 whole entry)

[10] = molecular target: T8, Muscarinic acetylcholine receptor M4 (Homo sapiens) (UniProt P08173); assay: Agonist activity at muscarinic M4 receptor relative to carbachol; type: functional
T8 sequence (whole entry): T4 sequence (P08173 whole entry)

[11] = molecular target: T9, Muscarinic acetylcholine receptor M5 (Homo sapiens) (UniProt P08912); assay: Agonist activity at muscarinic M5 receptor relative to carbachol; type: functional
T9 sequence (whole entry): T5 sequence (P08912 whole entry)

Sequence of Muscarinic acetylcholine receptor M3 (P20309 whole entry): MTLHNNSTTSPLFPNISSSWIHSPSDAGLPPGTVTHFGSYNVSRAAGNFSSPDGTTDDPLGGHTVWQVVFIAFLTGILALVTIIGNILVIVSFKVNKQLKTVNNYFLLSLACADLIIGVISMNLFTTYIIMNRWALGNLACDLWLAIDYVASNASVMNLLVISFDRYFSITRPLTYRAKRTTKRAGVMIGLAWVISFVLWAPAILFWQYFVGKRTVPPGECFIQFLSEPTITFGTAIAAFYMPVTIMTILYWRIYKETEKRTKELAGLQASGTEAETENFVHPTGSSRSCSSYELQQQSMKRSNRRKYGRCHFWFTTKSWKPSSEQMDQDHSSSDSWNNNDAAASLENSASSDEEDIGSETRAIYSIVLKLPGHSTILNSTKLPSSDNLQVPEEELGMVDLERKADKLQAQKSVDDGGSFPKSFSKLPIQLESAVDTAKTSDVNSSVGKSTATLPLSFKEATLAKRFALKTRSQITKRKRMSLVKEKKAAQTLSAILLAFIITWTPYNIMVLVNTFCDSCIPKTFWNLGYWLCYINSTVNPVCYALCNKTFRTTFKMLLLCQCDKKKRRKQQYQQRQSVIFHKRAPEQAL
T2 sequence (P14416 whole entry): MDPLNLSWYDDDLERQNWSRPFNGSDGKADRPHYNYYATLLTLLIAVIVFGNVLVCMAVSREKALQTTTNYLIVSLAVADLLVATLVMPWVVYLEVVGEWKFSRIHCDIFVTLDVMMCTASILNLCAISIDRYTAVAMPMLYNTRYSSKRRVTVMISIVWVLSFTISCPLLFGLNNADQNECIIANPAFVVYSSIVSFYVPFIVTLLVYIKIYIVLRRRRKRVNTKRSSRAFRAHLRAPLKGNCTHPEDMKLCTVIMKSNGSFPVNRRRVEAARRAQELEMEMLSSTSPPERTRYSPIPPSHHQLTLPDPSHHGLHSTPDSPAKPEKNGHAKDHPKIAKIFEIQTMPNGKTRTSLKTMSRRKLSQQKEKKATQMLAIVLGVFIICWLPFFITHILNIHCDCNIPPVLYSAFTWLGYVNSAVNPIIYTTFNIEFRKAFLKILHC

Row | Compound | Activity [1] [%] | Activity (D(2) dopamine receptor [2]) [%] | EC50 [3] [µM] | EC50 [4] [µM] | EC50 [5] [µM] | EC50 [6] [µM] | EC50 [7] [µM] | IC50 (D(2) dopamine receptor [8]) [µM] | Activity [9] [%] | Activity [10] [%] | Activity [11] [%]
1 | Cc1ccccc1CN1CCC(N2CCC(n3c(=O)[nH]c4cc(F)ccc43)CC2)CC1 | 85 | 40 | > 50 | > 50 | > 50 | > 50 | – | – | – | – | –
2 | O=c1[nH]c2cc(Cl)ccc2n1C1CCN(C2CCN(Cc3ccccc3C(F)(F)F)CC2)CC1 | 83 | – | > 50 | > 50 | > 50 | > 50 | 1.5 | – | – | – | –
3 | O=c1[nH]c2ccccc2n1C1CCN(C2CCN(Cc3ccccc3Cl)CC2)CC1 | 44 | – | > 50 | > 50 | > 50 | > 50 | 0.26 | 2.06 | – | – | –
4 | O=c1[nH]c2cc(F)ccc2n1C1CCN(C2CCN(Cc3ccccc3C(F)(F)F)CC2)CC1 | 80 | – | > 50 | > 50 | > 50 | > 50 | – | 2.69 | – | – | –
5 | Cc1ccccc1CN1CCC(N2CCC(n3c(=O)[nH]c4ccccc43)CC2)CC1 | 82 | – | > 50 | – | – | > 50 | – | 2.65 | – | – | –
6 | CCOC(=O)N1CCC(N2CCC(n3c(=O)[nH]c4ccccc43)CC2)CC1 | – | – | 0.0119 | – | 0.0091 | 0.0343 | – | > 10 | 80.6 | 96.9 | 50.8
7 | O=c1[nH]c2cc(Cl)ccc2n1C1CCN(C2CCN(Cc3ccccc3Cl)CC2)CC1 | 49 | – | > 50 | > 50 | > 50 | > 50 | 1.8 | – | – | – | –
8 | O=c1[nH]c2c(F)cccc2n1C1CCN(C2CCN(Cc3ccccc3C(F)(F)F)CC2)CC1 | 75 | – | > 50 | > 50 | > 50 | > 50 | – | > 10 | – | – | –
9 | Cc1ccccc1CN1CCC(N2CCC(n3c(=O)[nH]c4c(F)cccc43)CC2)CC1 | 73 | – | > 50 | > 50 | > 50 | > 50 | – | > 10 | – | – | –
10 | N#Cc1ccccc1CN1CCC(N2CCC(n3c(=O)[nH]c4ccccc43)CC2)CC1 | 23 | 40 | > 50 | > 50 | > 50 | > 50 | 0.49 | – | – | – | –
11 | Cc1ccccc1CN1CCC(N2CCC(n3c(=O)[nH]c4cc(Cl)ccc43)CC2)CC1 | 84 | 35 | > 50 | > 50 | > 50 | > 50 | 1.03 | – | – | – | –
12 | Cc1ccccc1CN1CCC(N2CCC(n3c(=O)[nH]c4ccc(F)cc43)CC2)CC1 | 84 | – | > 50 | > 50 | > 50 | > 50 | – | > 10 | – | – | –
13 | O=c1[nH]c2ccccc2n1C1CCN(C2CCN(Cc3ccccc3[N+](=O)[O-])CC2)CC1 | 48 | – | > 50 | > 50 | > 50 | > 50 | 0.12 | 1.13 | – | – | –
14 | O=c1[nH]c2cc(Cl)ccc2n1C1CCN(C2CCN(Cc3ccccc3)CC2)CC1 | 74 | 35 | > 50 | > 50 | > 50 | > 50 | 0.356 | – | – | – | –
15 | O=c1[nH]c2cc(Cl)ccc2n1C1CCN(C2CCN(Cc3ccccc3[N+](=O)[O-])CC2)CC1 | 42 | – | > 50 | > 50 | > 50 | > 50 | 1.1 | – | – | – | –
16 | O=c1[nH]c2ccccc2n1C1CCN(C2CCN(Cc3ccccc3C(F)(F)F)CC2)CC1 | – | 30 | > 50 | > 50 | > 50 | > 50 | 0.41 | – | – | – | –
17 | O=c1[nH]c2ccc(F)cc2n1C1CCN(C2CCN(Cc3ccccc3C(F)(F)F)CC2)CC1 | – | – | > 50 | > 50 | > 50 | > 50 | – | > 10 | – | – | –
18 | N#Cc1ccccc1CN1CCC(N2CCC(n3c(=O)[nH]c4cc(Cl)ccc43)CC2)CC1 | 27 | – | > 50 | > 50 | > 50 | > 50 | 1.6 | – | – | – | –
